US8871756B2 (Hoffmann-La Roche Inc., priority 2011, dated 2014)
Structures can show the parent of a compound that is named as a salt.

tested on: RSV Long strain; test: Viral cytopathic effect (CPE) assay, anti-RSV activity; type: cell-based, Respiratory Syncytial Virus; conditions: human respiratory syncytial virus, 144 h, RSV Long strain (ATCC); cell viability after 6 days, Cell Counting kit-8
Method in brief: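 Cells (6×10^3/well, DMEM with 10% FBS) were infected next day with RSV Long strain, at a dose giving approximately 80–90% CPE, alongside serial half-log compound dilutions. Viability was read after 6 days by CCK-8 absorbance at 450 nm (reference 630 nm), and EC50 was derived from it.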

Question: For Cc1ccc2nc(N3CC[S+]([O-])c4ccccc4C3)cc(NCC(O)CO)c2c1 (stereo not drawn) [Example 32-4, 3-{[6-Methyl-2-(1-oxido-2,3-dihydro-1,4-benzothiazepin-4(5H)-yl)quinolin-4-yl]amino}propane-1,2-diol], which EC50 is on record?
Answer: Its EC50 is 0.272 µM.

Question: For Cc1ccc2nc(N3CCS(=O)(=O)c4ccccc4C3)cc(N3C[C@@H]4OC(N)=N[C@@H]4C3)c2c1 (relative stereo) [Example 38-5, cis-5-[2-(1,1-Dioxido-2,3-dihydro-1,4-benzothiazepin-4(5H)-yl)-6-methylquinolin-4-yl]-4,5,6,6a-tetrahydro-3aH-pyrrolo[3,4-d][1,3]oxazol-2-amine], which EC50 is on record?
Answer: The EC50 was 6.65 µM.

Question: For Cc1ccc2nc(N3CCS(=O)(=O)c4ccccc4C3)cc(NCCC(N)=O)c2c1 [Example 36-1, N^˜3^˜-[2-(1,1-Dioxido-2,3-dihydro-1,4-benzothiazepin-4(5H)-yl)-6-methylquinolin-4-yl]-beta-alaninamide], which EC50 is on record?
Answer: The EC50 was 0.073 µM.

Question: Which EC50 does the source give for COc1ccc2c(c1)S(=O)(=O)CCN(c1cc(NCC3(CN)COC3)c3cc(Cl)ccc3n1)C2 [Example 3-14, N-{[3-(Aminomethyl)oxetan-3-yl]methyl}-6-chloro-2-(8-methoxy-1,1-dioxido-2,3-dihydro-1,4-benzothiazepin-4(5H)-yl)quinolin-4-amine] here?
Answer: The EC50 was 0.017 µM.

Question: NCCCNc1cc(N2CCS(=O)(=O)c3ccccc3C2)nc2ccc(C(F)(F)F)cc12 [Example 17-2, N-[2-(1,1-Dioxido-2,3-dihydro-1,4-benzothiazepin-4(5H)-yl)-6-(trifluoromethyl)quinolin-4-yl]propane-1,3-diamine] was tested. Which EC50 did it give?
Answer: The EC50 was 0.616 µM.

Question: How did the EC50 turn out when NC1=NCC(CNc2cc(N3CCCc4ccccc4C3)nc3ccc(Cl)cc23)O1 (stereo not drawn) [Example 126-2, N-[(2-Amino-4,5-dihydro-1,3-oxazol-5-yl)methyl]-6-chloro-2-(1,3,4,5-tetrahydro-2H-2-benzazepin-2-yl)quinolin-4-amine] was run?
Answer: The EC50 was 0.638 µM.

Question: For NCCNc1cc(N2CCCc3ccccc3C2)nc2ccc(Oc3ccccn3)cc12 [Example 122, N-[6-(Pyridin-2-yloxy)-2-(1,3,4,5-tetrahydro-2H-2-benzazepin-2-yl)quinolin-4-yl]ethane-1,2-diamine], which EC50 is on record?
Answer: The EC50 was 3.12 µM.

Question: For Cc1ccc2nc(N3CCC(F)(F)c4ccccc4C3)cc(NCC(C)N)c2c1 (stereo not drawn) [Example 110-8, N^˜1^˜-[2-(5,5-Difluoro-1,3,4,5-tetrahydro-2H-2-benzazepin-2-yl)-6-methylquinolin-4-yl]propane-1,2-diamine], which EC50 is on record?
Answer: The EC50 was 0.081 µM.

Question: Cc1ccc2nc(N3CCS(=O)(=O)c4ccccc4C3C)cc(NCC(O)CO)c2c1 (stereo not drawn) [Example 32-5, 3-{[6-Methyl-2-(5-methyl-1,1-dioxido-2,3-dihydro-1,4-benzothiazepin-4(5H)-yl)quinolin-4-yl]amino}propane-1,2-diol] was tested. Which EC50 did it give?
Answer: Its EC50 is 2.58 µM.

Question: Which EC50 does the source give for COc1ccc2c(c1)CN(c1cc(NCC3(CN)COC3)c3cc(C)ccc3n1)CCS2(=O)=O [Example 3-5, N-{[3-(Aminomethyl)oxetan-3-yl]methyl}-2-(7-methoxy-1,1-dioxido-2,3-dihydro-1,4-benzothiazepin-4(5H)-yl)-6-methylquinolin-4-amine] here?
Answer: Its EC50 is 0.002 µM.

Question: Which EC50 does the source give for Cc1ccc2nc(N3CCC(=O)c4ccccc4C3)nc(NCC3(N)COC3)c2c1 [Example 114-1, 2-(4-{[(3-Aminooxetan-3-yl)methyl]amino}-6-methylquinazolin-2-yl)-1,2,3,4-tetrahydro-5H-2-benzazepin-5-one] here?
Answer: Its EC50 is 0.007 µM.

Question: With Cc1ccc2nc(N3CCS(=O)(=O)c4ccccc4C3)cc(N3C[C@@H](N)[C@H](O)C3)c2c1 (relative stereo) [Example 19-3, trans-4-Amino-1-[2-(1,1-dioxido-2,3-dihydro-1,4-benzothiazepin-4(5H)-yl)-6-methylquinolin-4-yl]pyrrolidin-3-ol] as the molecule, how does the EC50 read?
Answer: The EC50 was 0.006 µM.

Question: NCCNc1cc(N2CCCc3ccc(C(=O)O)cc3C2)nc2ccccc12 [Example 118-25, 2-{4-[(2-Aminoethyl)amino]quinolin-2-yl}-2,3,4,5-tetrahydro-1H-2-benzazepine-8-carboxylic acid] was tested. Which EC50 did it give?
Answer: Its EC50 is 7.62 µM.

Question: Cc1ccc2nc(N3CCS(=O)(=O)c4ccccc4C3)cc(NC3(CCO)COC3)c2c1 [Example 5-12, 3-{[2-(1,1-Dioxido-2,3-dihydro-1,4-benzothiazepin-4(5H)-yl)-6-methylquinolin-4-yl]amino}oxetan-3-ethanol] was tested. Which EC50 did it give?
Answer: Its EC50 is 6.25 µM.

Question: For N[C@@H]1CN(c2cc(N3CCS(=O)(=O)c4ccccc4C3)nc3ccc(Cl)cc23)C[C@H]1O (relative stereo) [Example 19-6, trans-4-Amino-1-[6-chloro-2-(1,1-dioxido-2,3-dihydro-1,4-benzothiazepin-4(5 H)-yl)quinolin-4-yl]pyrrolidin-3-ol], which EC50 is on record?
Answer: The EC50 was 0.054 µM.

Question: Cc1ccc2nc(N3CCS(=O)(=O)c4ccccc4C3)cc(NC[C@H](C)N)c2c1 [Example 5-8, (2S)—N˜1˜-[2-(1,1-Dioxido-2,3-dihydro-1,4-benzothiazepin-4(5H)-yl)-6-methylquinolin-4-yl]propane-1,2-diamine] was tested. Which EC50 did it give?
Answer: The EC50 was 0.022 µM.

Question: How did the EC50 turn out when NC1(CNc2nc(N3CCSc4ccccc4C3)nc3ccc(Cl)cc23)COC1 [Example 57-4, N-[(3-Aminooxetan-3-yl)methyl]-6-chloro-2-(2,3-dihydro-1,4-benzothiazepin-4(5H)-yl)quinazolin-4-amine] was run?
Answer: Its EC50 is 0.239 µM.

Question: Which EC50 does the source give for NCCNc1cc(N2CCS(=O)(=O)c3ccccc3C2)nc2ccc(CO)cc12 [Example 10, {4-[(2-Aminoethyl)amino]-2-(1,1-dioxido-2,3-dihydro-1,4-benzothiazepin-4(5H)-yl)quinolin-6-yl}methanol] here?
Answer: The EC50 was 0.003 µM.

Question: How did the EC50 turn out when Cc1ccc2nc(N3CCS(=O)(=O)c4ccccc4C3)cc(NCCCCCN)c2c1 [Example 3-55, N-[2-(1,1-Dioxido-2,3-dihydro-1,4-benzothiazepin-4(5H)-yl)-6-methylquinolin-4-yl]pentane-1,5-diamine] was run?
Answer: The EC50 was 0.027 µM.

Question: For NCCNS(=O)(=O)c1cc(N2CCCc3ccccc3C2)nc2ccccc12 [Example 132, N-(2-Aminoethyl)-2-(1,3,4,5-tetrahydro-2H-2-benzazepin-2-yl)quinoline-4-sulfonamide trifluoroacetate], which EC50 is on record?
Answer: The EC50 was 7.81 µM.

Question: With Cc1cc2c(NCCN)cc(N3CCS(=O)(=O)c4ccccc4C3)nc2c(F)c1F [Example 9-25, N-[2-(1,1-Dioxido-2,3-dihydro-1,4-benzothiazepin-4(5H)-yl)-7,8-difluoro-6-methylquinolin-4-yl]ethane-1,2-diamine] as the molecule, how does the EC50 read?
Answer: Its EC50 is 4.08 µM.

Question: For Cc1ccc2nc(N3CCC(F)(F)c4ccccc4C3)cc(N(C)CCN)c2c1 [Example 111-3, N-[2-(5,5-Difluoro-1,3,4,5-tetrahydro-2H-2-benzazepin-2-yl)-6-methylquinolin-4-yl]-N-methylethane-1,2-diamine], which EC50 is on record?
Answer: Its EC50 is 0.0768 µM.

Question: Which EC50 does the source give for Cc1ccc2nc(N3CCS(=O)(=O)c4ccccc4C3)cc(NCC3CCN3)c2c1 (stereo not drawn) [Example 21-3, N-(Azetidin-2-ylmethyl)-2-(1,1-dioxido-2,3-dihydro-1,4-benzothiazepin-4(5H)-yl)-6-methylquinolin-4-amine] here?
Answer: The EC50 was 0.015 µM.

Question: How did the EC50 turn out when Cc1ccc2nc(N3CCS(=O)(=O)c4ccccc4C3)cc(NCCO)c2c1F [Example 9-22, 2-{[2-(1,1-Dioxido-2,3-dihydro-1,4-benzothiazepin-4(5H)-yl)-5-fluoro-6-methylquinolin-4-yl]amino}ethanol] was run?
Answer: The EC50 was 0.872 µM.

Question: How did the EC50 turn out when CO[C@@H]1CN(c2cc(N3CCS(=O)(=O)c4ccccc4C3)nc3ccc(C)cc23)C[C@H]1N (relative stereo) [Example 8-3, trans-1-[2-(1,1-Dioxido-2,3-dihydro-1,4-benzothiazepin-4(5H)-yl)-6-methylquinolin-4-yl]-4-methoxypyrrolidin-3-amine] was run?
Answer: The EC50 was 0.9 µM.

Question: With Cc1ccc2nc(N3CCS(=O)(=O)c4ccccc4C3)cc(NCCS(C)(=N)=O)c2c1 (stereo not drawn) [Example 77, 2-(1,1-Dioxido-2,3-dihydro-1,4-benzothiazepin-4(5H)-yl)-6-methyl-N-[2-(S-methylsulfonimidoyl)ethyl]quinolin-4-amine] as the molecule, how does the EC50 read?
Answer: The EC50 was 8.78 µM.

Question: With COc1ccc2c(c1)CN(c1cc(NCC3(CN)COC3)c3ccccc3n1)CCS2(=O)=O [Example 3-4, N-{[3-(Aminomethyl)oxetan-3-yl]methyl}-2-(7-methoxy-1,1-dioxido-2,3-dihydro-1,4-benzothiazepin-4(5H)-yl)-quinolin-4-amine] as the molecule, how does the EC50 read?
Answer: Its EC50 is 0.006 µM.

Question: With Cc1ccc2nc(N3CCS(=O)(=O)c4ccccc4C3)cc(N3C[C@@H](N)[C@H](F)C3)c2c1 (relative stereo) [Example 78-2, trans-1-[2-(1,1-Dioxido-2,3-dihydro-1,4-benzothiazepin-4(5H)-yl)-6-methylquinolin-4-yl]-4-fluoropyrrolidin-3-amine] as the molecule, how does the EC50 read?
Answer: Its EC50 is 0.25 µM.

Question: O=S1(=O)CCN(c2cc(N[C@@H]3CNC[C@H]3O)c3ccccc3n2)Cc2ccccc21 (relative stereo) [Example 28-2, trans-4-{[2-(1,1-Dioxido-2,3-dihydro-1,4-benzothiazepin-4(5H)-yl)quinolin-4-yl]amino}pyrrolidin-3-ol] was tested. Which EC50 did it give?
Answer: The EC50 was 0.007 µM.

Question: Cc1ccc2nc(N3CCS(=O)(=O)c4ccccc4C3)cc(NCCS(=O)(=O)CCN)c2c1 [Example 75, N-{2-[(2-Aminoethyl)sulfonyl]ethyl}-2-(1,1-dioxido-2,3-dihydro-1,4-benzothiazepin-4(5H)-yl)-6-methylquinolin-4-amine] was tested. Which EC50 did it give?
Answer: Its EC50 is 0.002 µM.

Question: How did the EC50 turn out when COCCNCCNc1cc(N2CCS(=O)(=O)c3ccccc3C2)nc2ccc(C)cc12 [Example 3-44, N-[2-(1,1-Dioxido-2,3-dihydro-1,4-benzothiazepin-4(5H)-yl)-6-methylquinolin-4-yl]-N′-(2-methoxyethyl)ethane-1,2-diamine] was run?
Answer: Its EC50 is 0.012 µM.

Question: How did the EC50 turn out when Cc1ccc2nc(N3CCS(=O)(=O)c4ccccc4C3)cc(NC(=O)[C@@H]3CCCN3)c2c1 [Example 27, N-[2-(1,1-Dioxido-2,3-dihydro-1,4-benzothiazepin-4(5H)-yl)-6-methylquinolin-4-yl]prolinamide] was run?
Answer: Its EC50 is 2.39 µM.

Question: With Cc1ccc2nc(N3CCS(=O)(=O)c4ccccc4C3)cc(NC(CN)(CO)CO)c2c1 [Example 72, 2-(Aminomethyl)-2-{[2-(1,1-dioxido-2,3-dihydro-1,4-benzothiazepin-4(5H)-yl)-6-methylquinolin-4-yl]amino}propane-1,3-diol] as the molecule, how does the EC50 read?
Answer: Its EC50 is 0.002 µM.
